# What was measured:
# [1] = biological target: T1, Nucleotide-binding oligomerization domain-containing protein 2 (Homo sapiens, UniProt Q9HC29); test: Inhibition of human NOD2 at 1 uM relative to control
# [2] = biological target: T2, Nucleotide-binding oligomerization domain-containing protein 1 (Homo sapiens, UniProt Q9Y239); test: Antagonist activity at human NOD1 expressed in HEK-Blue cells assessed as decrease in SEAP secretion incubated for 3 hrs followed by C12-iE-DAP stimulation for 20 hrs by spectrophotometry; type: cell-based, HEK-Blue hNOD1
# T2 sequence (Q9Y239 whole entry): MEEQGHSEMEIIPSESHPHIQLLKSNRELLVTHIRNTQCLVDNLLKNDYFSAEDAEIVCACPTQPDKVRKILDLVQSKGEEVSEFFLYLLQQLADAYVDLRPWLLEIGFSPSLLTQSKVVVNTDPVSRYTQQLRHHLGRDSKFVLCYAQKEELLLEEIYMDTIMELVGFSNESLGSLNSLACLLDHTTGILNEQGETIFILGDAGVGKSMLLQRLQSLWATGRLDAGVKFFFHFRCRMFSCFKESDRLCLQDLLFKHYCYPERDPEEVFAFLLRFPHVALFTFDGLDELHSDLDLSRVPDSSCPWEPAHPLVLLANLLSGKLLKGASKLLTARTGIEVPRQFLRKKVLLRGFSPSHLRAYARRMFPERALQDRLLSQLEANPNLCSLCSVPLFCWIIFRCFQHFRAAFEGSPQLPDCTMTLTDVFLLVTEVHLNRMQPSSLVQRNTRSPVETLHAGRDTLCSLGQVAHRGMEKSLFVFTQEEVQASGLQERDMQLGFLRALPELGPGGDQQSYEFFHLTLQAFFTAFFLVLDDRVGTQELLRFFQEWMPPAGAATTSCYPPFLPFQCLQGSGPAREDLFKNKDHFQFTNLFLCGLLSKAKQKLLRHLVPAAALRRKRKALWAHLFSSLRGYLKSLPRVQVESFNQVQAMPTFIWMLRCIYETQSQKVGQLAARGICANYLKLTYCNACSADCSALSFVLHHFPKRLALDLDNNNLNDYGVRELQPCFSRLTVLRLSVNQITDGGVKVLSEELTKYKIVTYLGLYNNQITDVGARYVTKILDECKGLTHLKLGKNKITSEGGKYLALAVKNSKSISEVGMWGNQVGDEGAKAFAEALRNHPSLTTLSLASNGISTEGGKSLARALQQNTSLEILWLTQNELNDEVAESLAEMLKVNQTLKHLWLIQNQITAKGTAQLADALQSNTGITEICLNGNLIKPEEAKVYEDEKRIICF
# [3] = Solubility of compound in phosphate buffer at pH 7.2 to 7.4; type: physicochemical
# [4] = biological target: T3, Nucleotide-binding oligomerization domain-containing protein 2 (Mus musculus) (UniProt Q8K3Z0); test: Inhibition of mouse NOD2 at 1 uM relative to control
# T3 sequence (whole entry): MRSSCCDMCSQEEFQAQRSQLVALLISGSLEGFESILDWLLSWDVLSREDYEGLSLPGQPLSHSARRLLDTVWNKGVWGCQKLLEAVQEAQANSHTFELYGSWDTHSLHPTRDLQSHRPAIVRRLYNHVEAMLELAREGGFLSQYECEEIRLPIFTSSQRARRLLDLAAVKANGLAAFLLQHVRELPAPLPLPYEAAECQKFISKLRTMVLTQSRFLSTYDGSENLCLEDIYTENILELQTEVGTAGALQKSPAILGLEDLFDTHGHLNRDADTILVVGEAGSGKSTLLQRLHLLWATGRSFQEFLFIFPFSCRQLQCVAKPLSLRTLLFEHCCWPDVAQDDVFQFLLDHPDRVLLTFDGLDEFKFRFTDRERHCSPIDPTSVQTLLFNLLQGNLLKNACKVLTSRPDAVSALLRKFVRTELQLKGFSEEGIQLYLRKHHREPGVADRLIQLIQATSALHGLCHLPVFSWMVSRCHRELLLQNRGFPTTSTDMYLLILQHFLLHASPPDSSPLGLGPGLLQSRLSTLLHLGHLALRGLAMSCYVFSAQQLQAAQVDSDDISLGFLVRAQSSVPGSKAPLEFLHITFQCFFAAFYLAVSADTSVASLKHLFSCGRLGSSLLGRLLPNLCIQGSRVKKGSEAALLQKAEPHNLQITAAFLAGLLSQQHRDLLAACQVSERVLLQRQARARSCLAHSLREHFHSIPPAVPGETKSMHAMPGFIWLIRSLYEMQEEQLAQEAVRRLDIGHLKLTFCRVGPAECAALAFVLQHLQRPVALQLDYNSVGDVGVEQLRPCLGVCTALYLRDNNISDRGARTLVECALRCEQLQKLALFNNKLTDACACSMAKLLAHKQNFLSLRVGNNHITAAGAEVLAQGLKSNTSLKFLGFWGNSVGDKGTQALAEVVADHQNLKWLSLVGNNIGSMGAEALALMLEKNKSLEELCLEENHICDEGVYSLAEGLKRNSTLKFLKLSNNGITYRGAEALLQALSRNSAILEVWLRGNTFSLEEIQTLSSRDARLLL
# [5] = biological target: Toll-like receptor 4 (Homo sapiens) (UniProt O00206); test: Inhibition of human TLR4 at 1 uM relative to control
# [6] = biological target: T4, Nucleotide-binding oligomerization domain-containing protein 1 (Mus musculus, UniProt Q8BHB0); test: Antagonist activity at mouse NOD1 expressed in HEK-Blue cells assessed as decrease in SEAP secretion incubated for 3 hrs followed by C12-iE-DAP stimulation for 20 hrs by spectrophotometry; type: cell-based, HEK-Blue mNOD1
# T4 sequence (Q8BHB0 whole entry): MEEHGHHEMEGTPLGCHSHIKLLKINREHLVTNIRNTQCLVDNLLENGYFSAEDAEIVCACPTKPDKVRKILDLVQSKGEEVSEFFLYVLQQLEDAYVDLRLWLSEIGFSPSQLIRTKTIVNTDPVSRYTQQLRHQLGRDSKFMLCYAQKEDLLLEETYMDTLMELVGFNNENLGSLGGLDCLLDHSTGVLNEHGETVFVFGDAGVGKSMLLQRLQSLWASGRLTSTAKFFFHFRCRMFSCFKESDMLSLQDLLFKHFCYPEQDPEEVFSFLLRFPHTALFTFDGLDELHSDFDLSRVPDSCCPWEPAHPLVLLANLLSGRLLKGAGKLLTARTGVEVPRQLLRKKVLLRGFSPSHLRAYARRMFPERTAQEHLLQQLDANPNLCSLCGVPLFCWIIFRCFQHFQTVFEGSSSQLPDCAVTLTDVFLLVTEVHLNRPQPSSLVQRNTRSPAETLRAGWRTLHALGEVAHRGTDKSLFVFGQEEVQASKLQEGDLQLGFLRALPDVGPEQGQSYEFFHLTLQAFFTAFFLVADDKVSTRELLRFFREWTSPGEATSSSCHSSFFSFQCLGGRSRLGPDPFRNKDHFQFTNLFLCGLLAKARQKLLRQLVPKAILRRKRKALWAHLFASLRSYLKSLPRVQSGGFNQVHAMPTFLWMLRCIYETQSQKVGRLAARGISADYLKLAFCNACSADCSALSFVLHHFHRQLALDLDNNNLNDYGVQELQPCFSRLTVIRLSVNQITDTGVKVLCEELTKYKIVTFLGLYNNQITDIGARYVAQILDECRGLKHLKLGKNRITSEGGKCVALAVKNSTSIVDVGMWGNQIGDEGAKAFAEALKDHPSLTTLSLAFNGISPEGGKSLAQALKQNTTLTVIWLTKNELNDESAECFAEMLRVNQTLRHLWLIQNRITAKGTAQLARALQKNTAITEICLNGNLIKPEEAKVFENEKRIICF
# [7] = biological target: T5, Nucleotide-binding oligomerization domain-containing protein 1 (Mus musculus) (UniProt Q8BHB0); test: Antagonist activity at mouse NOD1 expressed in HEK-Blue cells assessed as decrease in SEAP secretion at 1 uM incubated for 3 hrs followed by C12-iE-DAP stimulation for 20 hrs by spectrophotometry relative to control; type: cell-based; details: HEK-Blue mNOD1, filed as antagonist, time 23.0 hrs
# T5 sequence (whole entry): T4 sequence (Q8BHB0 whole entry)
# [8] = biological target: Receptor-interacting serine/threonine-protein kinase 2 (Homo sapiens) (UniProt O43353); test: Inhibition of RIP2 (unknown origin) at 10 uM relative to control
# [9] = Metabolic stability in human liver microsomes assessed as intrinsic clearance at 1.25 uM preincubated for 5 mins followed by NADPH addition measured upto 120 mins by LC-MS/MS analysis; type: ADME, Microsome; details: time < 125 min, read-out: CLH
# [10] = Metabolic stability in human liver microsomes assessed as half life at 1.25 uM preincubated for 5 mins followed by NADPH addition measured upto 120 mins by LC-MS/MS analysis; type: ADME, Microsome; details: time < 125 min
# [11] = Metabolic stability in mouse liver microsomes assessed as half life at 1.25 uM preincubated for 5 mins followed by NADPH addition measured upto 120 mins by LC-MS/MS analysis; type: ADME, Microsome; details: time < 125 min
# [12] = Metabolic stability in mouse liver microsomes assessed as intrinsic clearance at 1.25 uM preincubated for 5 mins followed by NADPH addition measured upto 120 mins by LC-MS/MS analysis; type: ADME, Microsome; details: time < 125 min, read-out: CLH
# [13] = Metabolic stability in human liver microsomes assessed as hepatic clearance at 1.25 uM preincubated for 5 mins followed by NADPH addition measured upto 120 mins by LC-MS/MS analysis; type: ADME, Microsome; details: time < 125 min
# [14] = Metabolic stability in mouse liver microsomes assessed as hepatic clearance at 1.25 uM preincubated for 5 mins followed by NADPH addition measured upto 120 mins by LC-MS/MS analysis; type: ADME, Microsome; details: time < 125 min
# [15] = Metabolic stability in mouse hepatocytes assessed as half life at 10 uM measured after 120 mins by LC-MS analysis; type: ADME, cell-based, Hepatocyte
# [16] = Metabolic stability in human hepatocytes assessed as half life at 10 uM measured after 120 mins by LC-MS analysis; type: ADME, cell-based, Hepatocyte
# [17] = Metabolic stability in human hepatocytes assessed as hepatic clearance at 10 uM measured after 120 mins by LC-MS analysis; type: ADME, cell-based, Hepatocyte
# [18] = Metabolic stability in human hepatocytes assessed as intrinsic clearance measured per million cells at 10 uM measured after 120 mins by LC-MS analysis; type: ADME, cell-based, Hepatocyte; details: read-out: CLH
# [19] = Metabolic stability in mouse hepatocytes assessed as intrinsic clearance measured per million cells at 10 uM measured after 120 mins by LC-MS analysis; type: ADME, cell-based, Hepatocyte; details: 2 h
# [20] = biological target: T5, Nucleotide-binding oligomerization domain-containing protein 1 (Mus musculus); test: Antagonist activity at mouse NOD1 expressed in HEK-Blue cells assessed as decrease in SEAP secretion at 5 uM incubated for 3 hrs followed by C12-iE-DAP stimulation for 20 hrs by spectrophotometry relative to control; type: cell-based; details: HEK-Blue mNOD1, filed as antagonist, time 23.0 hrs
# [21] = biological target: T1, Nucleotide-binding oligomerization domain-containing protein 2; test: Antagonist activity at human NOD2 expressed in HEK293 cells assessed as decrease in MDP-stimulated IL-8 release incubated for 24 hrs by fluorescence based assay; type: cell-based
# T1 sequence (Q9HC29 whole entry, the tested form may be a part): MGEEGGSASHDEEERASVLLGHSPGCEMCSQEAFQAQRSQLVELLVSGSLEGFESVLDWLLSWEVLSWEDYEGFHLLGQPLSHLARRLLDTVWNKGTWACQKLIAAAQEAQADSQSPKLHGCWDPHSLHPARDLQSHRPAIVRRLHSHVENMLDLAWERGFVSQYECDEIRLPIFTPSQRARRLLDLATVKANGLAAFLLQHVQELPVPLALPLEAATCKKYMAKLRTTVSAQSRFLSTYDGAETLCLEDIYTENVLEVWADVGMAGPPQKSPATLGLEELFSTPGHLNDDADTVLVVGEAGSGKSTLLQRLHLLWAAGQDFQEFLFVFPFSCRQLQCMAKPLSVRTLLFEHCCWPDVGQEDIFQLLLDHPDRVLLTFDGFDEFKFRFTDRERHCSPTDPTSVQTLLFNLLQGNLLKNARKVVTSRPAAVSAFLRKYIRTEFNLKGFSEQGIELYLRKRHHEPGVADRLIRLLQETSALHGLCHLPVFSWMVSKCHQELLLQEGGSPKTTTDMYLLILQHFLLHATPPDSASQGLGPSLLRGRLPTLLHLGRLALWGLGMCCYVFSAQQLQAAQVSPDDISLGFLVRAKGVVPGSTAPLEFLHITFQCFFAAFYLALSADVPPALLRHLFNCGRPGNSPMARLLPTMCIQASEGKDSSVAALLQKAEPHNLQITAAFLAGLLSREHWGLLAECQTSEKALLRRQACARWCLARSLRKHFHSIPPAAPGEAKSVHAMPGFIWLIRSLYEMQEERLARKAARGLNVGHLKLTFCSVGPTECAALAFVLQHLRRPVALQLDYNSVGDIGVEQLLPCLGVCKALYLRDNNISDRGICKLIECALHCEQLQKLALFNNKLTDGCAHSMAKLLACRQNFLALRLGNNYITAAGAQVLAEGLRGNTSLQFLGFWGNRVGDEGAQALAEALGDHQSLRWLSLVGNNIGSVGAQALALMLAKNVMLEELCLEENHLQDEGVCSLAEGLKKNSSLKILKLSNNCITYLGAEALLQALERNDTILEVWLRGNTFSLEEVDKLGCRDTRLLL
# Sequence of Toll-like receptor 4 (Homo sapiens) (O00206 whole entry, the tested form may be a part): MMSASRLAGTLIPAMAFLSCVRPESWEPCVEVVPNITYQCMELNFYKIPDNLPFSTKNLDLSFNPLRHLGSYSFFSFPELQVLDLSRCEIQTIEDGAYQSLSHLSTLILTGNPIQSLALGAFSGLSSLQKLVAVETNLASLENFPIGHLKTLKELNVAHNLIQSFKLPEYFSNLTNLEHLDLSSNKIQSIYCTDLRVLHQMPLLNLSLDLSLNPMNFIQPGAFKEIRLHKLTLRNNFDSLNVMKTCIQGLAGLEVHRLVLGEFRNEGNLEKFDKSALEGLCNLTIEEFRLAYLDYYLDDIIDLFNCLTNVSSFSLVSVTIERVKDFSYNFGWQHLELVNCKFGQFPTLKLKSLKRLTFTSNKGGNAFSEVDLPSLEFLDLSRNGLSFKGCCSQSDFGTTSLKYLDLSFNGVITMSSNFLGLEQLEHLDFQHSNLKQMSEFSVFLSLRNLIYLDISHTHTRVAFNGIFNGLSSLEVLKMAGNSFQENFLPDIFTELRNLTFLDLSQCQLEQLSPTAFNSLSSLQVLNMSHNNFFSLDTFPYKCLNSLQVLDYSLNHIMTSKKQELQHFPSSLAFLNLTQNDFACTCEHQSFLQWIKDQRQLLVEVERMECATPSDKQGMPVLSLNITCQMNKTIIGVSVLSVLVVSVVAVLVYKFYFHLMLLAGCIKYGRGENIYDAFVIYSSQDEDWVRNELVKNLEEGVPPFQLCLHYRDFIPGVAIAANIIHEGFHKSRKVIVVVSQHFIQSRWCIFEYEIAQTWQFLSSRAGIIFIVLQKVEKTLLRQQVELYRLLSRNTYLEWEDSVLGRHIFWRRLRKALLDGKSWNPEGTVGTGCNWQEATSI
# Sequence of Receptor-interacting serine/threonine-protein kinase 2 (Homo sapiens) (O43353 whole entry): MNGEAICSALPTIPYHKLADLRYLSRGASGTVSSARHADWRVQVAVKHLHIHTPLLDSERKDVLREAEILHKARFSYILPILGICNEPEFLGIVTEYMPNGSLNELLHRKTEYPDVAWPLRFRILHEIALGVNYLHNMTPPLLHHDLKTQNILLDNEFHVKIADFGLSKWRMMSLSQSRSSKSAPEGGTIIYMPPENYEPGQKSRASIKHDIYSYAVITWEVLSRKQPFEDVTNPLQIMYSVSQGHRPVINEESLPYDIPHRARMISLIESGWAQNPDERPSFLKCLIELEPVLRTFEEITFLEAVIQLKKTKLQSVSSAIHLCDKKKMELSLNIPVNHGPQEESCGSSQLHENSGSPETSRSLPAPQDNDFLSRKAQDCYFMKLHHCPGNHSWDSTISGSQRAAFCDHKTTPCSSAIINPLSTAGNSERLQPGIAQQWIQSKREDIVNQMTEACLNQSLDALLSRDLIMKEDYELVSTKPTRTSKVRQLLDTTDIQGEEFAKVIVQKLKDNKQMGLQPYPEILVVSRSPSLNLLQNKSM
inhibition [1],IC50 [2],IC50 [6],inhibition [7],microsomal CLint at 1.25 µM [9],half-life at 1.25 µM [10],half-life at 1.25 µM [11],microsomal CLint at 1.25 µM [12],CLhep predicted at 1.25 µM [13],CLhep predicted at 1.25 µM [14],inhibition [20],Compound,also measured
–,40 nM,2630 nM,42.7%,–,–,–,–,–,–,67.4%,O=c1c2cc(Cl)ccc2nc(Cl)n1-c1ccc(Cl)c(NS(=O)(=O)c2ccccc2F)c1,–
< 10%,–,6920 nM,–,–,–,–,–,–,–,49.4%,Cc1nc2ccc(Cl)cc2c(=O)n1-c1ccc(Cl)c(NS(=O)(=O)c2ccccc2F)c1,IC50 [21]: > 20000 nM

# Second part, the compound before the results:
Compound,inhibition [1],IC50 [2],IC50 [6],inhibition [7],microsomal CLint at 1.25 µM [9],half-life at 1.25 µM [10],half-life at 1.25 µM [11],microsomal CLint at 1.25 µM [12],CLhep predicted at 1.25 µM [13],CLhep predicted at 1.25 µM [14],inhibition [20],also measured
O=c1c2ccncc2nc(Cl)n1-c1ccc(Cl)c(NS(=O)(=O)c2c(F)cccc2F)c1,< 10%,5.2 nM,77 nM,83.7%,–,–,–,–,–,–,–,solubility [3]: 5.7 µg/mL; inhibition [4]: < 10%; inhibition [5]: < 10%; inhibition [8]: < 10%
O=c1c2nc(Cl)ccc2nc(Cl)n1-c1ccc(Cl)c(NS(=O)(=O)c2ccccc2F)c1,–,11 nM,193 nM,84.6%,13.4 µL/min/mg,104 min,39.1 min,35.4 µL/min/mg,8.9 mL/min/kg,54.7 mL/min/kg,–,–
O=c1c2ccncc2nc(Cl)n1-c1ccc(Cl)c(NS(=O)(=O)c2ccccc2F)c1,–,4.1 nM,344 nM,83.9%,< 7.4 µL/min/mg,> 186 min,> 186 min,< 7.4 µL/min/mg,< 6.1 mL/min/kg,< 22.1 mL/min/kg,–,half-life at 10 µM [15]: 2.3 min; half-life at 10 µM [16]: 11.6 min; CLhep predicted at 10 µM [17]: 18.6 mL/min/kg; hepatocyte CLint at 10 µM [18]: 59.5 µL/min/1e6 cells; CLH [19]: 307.2 µL/min
